Test results published in patent US20170100353A1, “COMPOSITIONS AND METHODS THAT TARGET OLFACTORY RECEPTORS FOR REGULATION OF BREATHING” (The Board of Trustees of the Leland Stanford Junio, priority 2015, published 2017).
Like-named read-outs stand apart in the source and are kept apart here.

Legend:
Olfr78 [1] = target: T1, Olfr78 (Mus musculus, UniProt Q8VBV9); conditions: cited from earlier work
T1 construct: host or cells: HEK293T
T1 sequence (Q8VBV9 1-320): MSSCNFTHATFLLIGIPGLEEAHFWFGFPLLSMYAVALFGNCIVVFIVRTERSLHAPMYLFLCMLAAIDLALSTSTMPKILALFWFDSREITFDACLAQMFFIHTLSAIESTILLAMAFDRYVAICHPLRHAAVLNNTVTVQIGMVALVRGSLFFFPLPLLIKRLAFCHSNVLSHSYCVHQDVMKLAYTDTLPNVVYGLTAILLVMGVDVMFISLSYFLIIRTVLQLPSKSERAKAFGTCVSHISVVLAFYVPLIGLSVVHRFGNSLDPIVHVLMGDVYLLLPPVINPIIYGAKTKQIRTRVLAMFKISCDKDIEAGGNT

OR51E2 [2] = target: T2, OR51E2 (Homo sapiens, UniProt Q9H255); conditions: cited from earlier work
T2 construct: host or cells: HEK293T
T2 sequence (Q9H255 1-320): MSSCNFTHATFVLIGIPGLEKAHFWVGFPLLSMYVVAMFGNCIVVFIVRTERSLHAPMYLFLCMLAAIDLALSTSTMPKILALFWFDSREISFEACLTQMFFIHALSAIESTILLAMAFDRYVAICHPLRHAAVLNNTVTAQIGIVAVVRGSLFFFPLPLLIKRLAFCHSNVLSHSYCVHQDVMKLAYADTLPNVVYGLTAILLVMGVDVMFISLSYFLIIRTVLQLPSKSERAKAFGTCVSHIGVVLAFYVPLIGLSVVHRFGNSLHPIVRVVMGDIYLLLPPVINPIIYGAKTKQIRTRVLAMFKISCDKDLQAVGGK

Olfr78 [3] = target: T1, Olfr78; test: Luciferase dual reporter assay of Olfr78 expressed in HEK293T cells; assay type: cell-based
Description: pCl-Rho-Olfr78 plasmid construction and expression. The pCl-Rho-Olfr78 plasmid was made by PCR amplifying the Olfr78 coding region from a pCMV6-Olfr78 plasmid (OriGene) using forward primer 5′-[…]-3′ and reverse primer 5′-[…]-3′, adding EcoR1 and Not1 restriction sites. The Olfr78 PCR fragment was then digested with EcoR1 and Not1 and cloned into a pCl-Rho backbone cut from a pCl-Rho-Olfr62 plasmid (gift of Hiroaki Matsunami, Duke University). […] Cytoplasmic GFP (co-transfection marker) was expressed from a TBC1 D25::eGFP plasmid (gift of Suzanne Pfeffer, Stanford University).
Luciferase assay. HEK293T cells were grown and seeded into 96 well plates. On the next day, cells were transfected with RTP1S, Gα15-olf (gifts of Hiroaki Matsunami, Duke University), pCMV6-Ric8b (Origene), pCRE-Luc (Agilent), and pSV40-RL (Promega) plasmids and either pCl-Rho-Olfr78 or pCl (Promega). The Rho tag on Olfr78 and RTP1S were used to enhance localization of Olfr78 to the plasma membrane. Gα15-olf and Ric8b were included as downstream effectors that couple to ORs to increase cAMP production upon OR activation. Two transcriptional luciferase reporters, one constitutive (Renilla, pSV40-RL) and one inducible by cAMP (firefly, pCRE-Luc) were transfected to report increased cAMP levels upon OR activation.
Five hours after transfection, media was decanted and replaced with 50 μL/well MEM without phenol red (Life Technologies). After thirty minutes, 25 μL of chemicals were added to each well to achieve the indicated final concentrations, and cells were incubated for 2 hours. Sodium salts of chloride, L-lactate, propionate, and acetate (Sigma) were used.
Reagents to detect firefly and Renilla luciferase activity (Dual-Glo Luciferase Assay System, Promega) were added at 20 μl/well. Luminescence was measured using an Infinite M1000 (Tecan) microplate reader and data acquired by Magellan Data Analysis Software (Tecan). Two readings were collected for each plate and luciferase reagent, and firefly to Renilla ratios were averaged. Data was from experiments conducted over three days. For dose response curves in FIG. 4a and FIGS. 11d-f, ratios were normalized to the highest and lowest average values for a given condition across all plates on each day.
Data analysis and statistics. Data analysis and statistical tests were performed using Microsoft Excel and GraphPad software. GraphPad Prism 6 was used to fit dose-response curves using a variable slope model and to calculate EC50 values. All data are biological replicates, and quantitative data with error bars are presented as mean±standard error of the mean (s.e.m.) with the exception of FIG. 11c, which is presented as percent±standard error of percentage. […] No statistical method was used to predetermine sample size.

[4] = system: carotid body glomus cells; test: Calcium imaging of GCaMP3-expressing carotid body glomus cells; assay type: cell-based, mouse; conditions: lactate 30 mM, cyanide 2 mM; whole carotid bodies and slice preparations; hyperoxia
carotid body = test: Carotid sinus nerve recordings (carotid body sensory activity); set-up: species or system mouse; conditions: 30 mM, PO2=625 mmHg; for Carotid sinus nerve activity, Olfr78-/- mutants: Olfr78-/- mutant nerves; for Carotid sinus nerve activity, Olfr78+/+: wild-type Olfr78+/+ preparations
OR51E2 [5] = target: T2, OR51E2; conditions: screen of 93 named compounds; cited from earlier work
OR51E1 [6] = target: T3, OR51E1 (Homo sapiens, UniProt Q8TCB6); conditions: another study and a more recent study; cited from earlier work
T3 sequence (Q8TCB6 1-318): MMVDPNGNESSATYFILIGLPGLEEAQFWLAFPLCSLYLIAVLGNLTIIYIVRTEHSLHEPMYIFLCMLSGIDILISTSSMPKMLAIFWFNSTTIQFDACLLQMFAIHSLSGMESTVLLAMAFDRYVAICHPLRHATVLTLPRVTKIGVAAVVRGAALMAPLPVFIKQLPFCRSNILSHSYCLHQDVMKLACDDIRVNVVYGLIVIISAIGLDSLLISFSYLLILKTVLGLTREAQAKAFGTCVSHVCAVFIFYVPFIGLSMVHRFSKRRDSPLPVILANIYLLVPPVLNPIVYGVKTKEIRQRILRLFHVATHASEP

OR51E1 [7] = target: T3, OR51E1; conditions: screen of 93 named compounds; cited from earlier work
Olfr558 = Olfr558 (Mus musculus, UniProt Q8VGZ7); conditions: screen of 93 named compounds; cited from earlier work
[8] = heterologous expression in HEK293T cells, same range of concentrations
[9] = study looking at Olfr78 and OR51E2

Chain of Olfr558 (Q8VGZ7 entry or part of it): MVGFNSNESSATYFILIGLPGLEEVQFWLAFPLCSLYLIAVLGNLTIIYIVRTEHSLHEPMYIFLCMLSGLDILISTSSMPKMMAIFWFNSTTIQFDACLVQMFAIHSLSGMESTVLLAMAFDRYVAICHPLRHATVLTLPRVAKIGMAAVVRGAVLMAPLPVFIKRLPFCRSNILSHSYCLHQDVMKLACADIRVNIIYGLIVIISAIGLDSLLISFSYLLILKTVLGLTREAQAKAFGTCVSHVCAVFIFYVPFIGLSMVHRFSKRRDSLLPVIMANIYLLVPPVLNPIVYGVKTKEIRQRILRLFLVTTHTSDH

| SMILES | Activation of Olfr78 (in words) (Olfr78 [3]; [8]) | Carotid sinus nerve activity, Olfr78-/- mutants (carotid body) | Carotid sinus nerve activity, Olfr78+/+ (carotid body) | Agonist activity at OR51E1 (OR51E1 [6]) | also measured |
| --- | --- | --- | --- | --- | --- |
| O=CO [formate] |  |  |  |  | Agonist activity at Olfr78 (Olfr78 [1]): not; Agonist activity at OR51E2 (OR51E2 [2]): not |
| CC(O)C(=O)O (stereo not drawn) [lactate, 2-hydroxypropanoic acid] | activated Olfr78 in a dose-dependent manner | little response | increased carotid sinus nerve activity |  | EC50 (Olfr78 [3]; heterologous expression in HEK293T cells, sodium salts, 2 hours stimulation, read-out: EC50 for activation of Olfr78): 4 mM; Calcium response of glomus cells [4]: induced calcium transients |
| CCC(=O)O [propionate, propionic acid] | stimulated Olfr78 | little effect | stimulate carotid sinus nerve activity | activated | Agonist activity at Olfr78 (Olfr78 [1]; [9]): agonists; Agonist activity at OR51E2 (OR51E2 [2]; [9]): agonists; Agonist activity at OR51E2 in chemical screen (OR51E2 [5]): specifically activated |
| CCC(C)CC(=O)O (stereo not drawn) [3-methyl-valeric acid] |  |  |  | agonists |  |
| CCCCCCCCC(=O)O [nonanoic acid] |  |  |  | activated | Agonist activity at OR51E1 in chemical screen (OR51E1 [7]): activated; Agonist activity at Olfr558 in chemical screen (Olfr558): activated |
| CC(C)CC(=O)O [isovaleric acid] |  |  |  | activated |  |
| CC(=O)O [acetate] | stimulated Olfr78 | little effect | stimulate carotid sinus nerve activity |  | Agonist activity at Olfr78 (Olfr78 [1]; [9]): agonists; Agonist activity at OR51E2 (OR51E2 [2]; [9]): agonists |
| CCCCOC(=O)C(C)OC(=O)CCC (stereo not drawn) [butyl butylryllactate] |  |  |  |  | Agonist activity at OR51E1 in chemical screen (OR51E1 [7]): activated |
| Cl [Chloride ion, chloride] |  |  |  |  | Activation of Olfr78 (in words) (Olfr78 [3]): no effect |
| CC(C)CCC(=O)O [4-methyl-valeric acid] |  |  |  | agonists |  |
